For assay [1], the system named is human non-small cell lung cancer NCI-H1975 cell line. Briefly: SRB proliferation assay, NCI-H1975 cells. The class given is cell-based. The note with it: NCI-H1975, SRB, 72 h, read-out: IC50 NCI-H1975. An outline of the steps:
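NCI-H1975 cells in log phase were allowed to adhere for 24 h, then treated with compound in triplicate for 72 h. Cells were TCA-fixed and SRB-stained, with OD read at 515 nm; IC50 derived from growth inhibition versus DMSO control.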
A general note: Sulforhodamine B stains cellular protein and so reports cell mass.

A further assay concerns the target T1, IGF-1R (Homo sapiens, UniProt P08069).
T1 construct: purchased Millipore
Briefly: kinase inhibitory activity test (ELISA), IGF-1R. The class given is biochemical. The settings on record: ATP 5 μM, 1 hour at 37° C. The procedure, abridged: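 Poly(Glu,Tyr)4:1-coated plates; kinase reacted 1 h at 37 °C with 5 μM ATP (final) in HEPES pH 7.4 buffer with Mg2+/Mn2+. Phosphotyrosine detected by PY99 and HRP anti-mouse IgG with OPD at 490 nm; IC50 from four-parameter fit.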

Assay [2] has as its system human lung cancer NCI-H1975 nude mice subcutaneous xenografts. Nature of the assay: NCI-H1975 nude mice subcutaneous xenograft. The class given is in vivo. As for the experimental part: The tumor tissue in the growth stage was taken and cut into small pieces of about 1.5 mm^3, which were inoculated subcutaneously in nude mice under aseptic conditions. When the tumor was grown to about 100 mm^3, nude mice were random allocated. […] The mice were gavage administered once a day for 11 days, and the solvent control group (injection water containing 1% Tween 80) was set. During the whole experiment, the diameter of the transplanted tumor was measured twice a week with a vernier caliper and the weights of the mice were weighed. The volume of tumor was calculated as follows: TV=½×a×b^2 (Where a,b respectively represent long and wide)

A further assay concerns the target T2, EGFR^wt (Homo sapiens, UniProt P00533).
T2 construct: purchased Millipore
Briefly: kinase inhibitory activity test (ELISA), EGFR^WT. The class given is biochemical. The note with it: ATP 5 μM, 1 hour at 37° C. The procedure, abridged:
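ELISA on poly(Glu,Tyr)4:1-coated plates; kinase reaction with 5 μM ATP (final) in 50 mM HEPES pH 7.4, 50 mM MgCl2, 5 mM MnCl2, 0.2 mM Na3VO4, 1 mM DTT, 1 h at 37° C. Phosphotyrosine detected via PY99/HRP and OPD at 490 nm; IC50 by four-parameter fit.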
Background: An ELISA detects its analyte on a solid surface through an enzyme-linked reagent.

T2 sequence (P00533 25-1210): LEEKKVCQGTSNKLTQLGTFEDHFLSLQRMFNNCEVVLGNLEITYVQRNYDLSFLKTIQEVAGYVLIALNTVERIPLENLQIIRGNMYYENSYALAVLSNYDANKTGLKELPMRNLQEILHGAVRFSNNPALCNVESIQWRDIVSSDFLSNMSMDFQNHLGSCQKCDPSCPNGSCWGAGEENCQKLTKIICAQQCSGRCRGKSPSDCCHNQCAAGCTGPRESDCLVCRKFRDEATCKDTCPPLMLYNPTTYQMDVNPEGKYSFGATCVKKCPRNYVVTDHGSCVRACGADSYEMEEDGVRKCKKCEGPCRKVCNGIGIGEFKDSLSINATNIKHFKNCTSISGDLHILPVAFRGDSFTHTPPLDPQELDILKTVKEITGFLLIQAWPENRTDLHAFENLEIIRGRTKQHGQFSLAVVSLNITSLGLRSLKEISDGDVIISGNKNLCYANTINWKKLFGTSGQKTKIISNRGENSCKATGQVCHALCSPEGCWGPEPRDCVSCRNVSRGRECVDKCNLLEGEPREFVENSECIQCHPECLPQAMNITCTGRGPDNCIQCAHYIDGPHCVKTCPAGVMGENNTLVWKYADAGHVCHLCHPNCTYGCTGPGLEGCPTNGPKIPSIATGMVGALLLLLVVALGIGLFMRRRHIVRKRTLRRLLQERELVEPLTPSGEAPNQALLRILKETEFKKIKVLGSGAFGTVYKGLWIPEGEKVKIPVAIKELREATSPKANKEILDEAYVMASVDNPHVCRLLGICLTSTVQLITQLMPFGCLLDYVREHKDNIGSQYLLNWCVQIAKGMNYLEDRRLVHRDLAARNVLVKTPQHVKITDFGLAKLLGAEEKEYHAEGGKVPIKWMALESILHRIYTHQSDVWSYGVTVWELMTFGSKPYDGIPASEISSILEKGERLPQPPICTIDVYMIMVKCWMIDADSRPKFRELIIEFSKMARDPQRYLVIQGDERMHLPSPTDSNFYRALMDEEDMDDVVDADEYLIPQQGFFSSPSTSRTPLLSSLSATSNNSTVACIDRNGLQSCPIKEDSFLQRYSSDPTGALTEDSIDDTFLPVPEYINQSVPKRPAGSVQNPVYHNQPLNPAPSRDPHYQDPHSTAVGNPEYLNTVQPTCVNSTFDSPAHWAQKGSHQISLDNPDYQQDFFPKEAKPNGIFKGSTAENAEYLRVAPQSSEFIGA
T1 sequence (P08069 31-1367): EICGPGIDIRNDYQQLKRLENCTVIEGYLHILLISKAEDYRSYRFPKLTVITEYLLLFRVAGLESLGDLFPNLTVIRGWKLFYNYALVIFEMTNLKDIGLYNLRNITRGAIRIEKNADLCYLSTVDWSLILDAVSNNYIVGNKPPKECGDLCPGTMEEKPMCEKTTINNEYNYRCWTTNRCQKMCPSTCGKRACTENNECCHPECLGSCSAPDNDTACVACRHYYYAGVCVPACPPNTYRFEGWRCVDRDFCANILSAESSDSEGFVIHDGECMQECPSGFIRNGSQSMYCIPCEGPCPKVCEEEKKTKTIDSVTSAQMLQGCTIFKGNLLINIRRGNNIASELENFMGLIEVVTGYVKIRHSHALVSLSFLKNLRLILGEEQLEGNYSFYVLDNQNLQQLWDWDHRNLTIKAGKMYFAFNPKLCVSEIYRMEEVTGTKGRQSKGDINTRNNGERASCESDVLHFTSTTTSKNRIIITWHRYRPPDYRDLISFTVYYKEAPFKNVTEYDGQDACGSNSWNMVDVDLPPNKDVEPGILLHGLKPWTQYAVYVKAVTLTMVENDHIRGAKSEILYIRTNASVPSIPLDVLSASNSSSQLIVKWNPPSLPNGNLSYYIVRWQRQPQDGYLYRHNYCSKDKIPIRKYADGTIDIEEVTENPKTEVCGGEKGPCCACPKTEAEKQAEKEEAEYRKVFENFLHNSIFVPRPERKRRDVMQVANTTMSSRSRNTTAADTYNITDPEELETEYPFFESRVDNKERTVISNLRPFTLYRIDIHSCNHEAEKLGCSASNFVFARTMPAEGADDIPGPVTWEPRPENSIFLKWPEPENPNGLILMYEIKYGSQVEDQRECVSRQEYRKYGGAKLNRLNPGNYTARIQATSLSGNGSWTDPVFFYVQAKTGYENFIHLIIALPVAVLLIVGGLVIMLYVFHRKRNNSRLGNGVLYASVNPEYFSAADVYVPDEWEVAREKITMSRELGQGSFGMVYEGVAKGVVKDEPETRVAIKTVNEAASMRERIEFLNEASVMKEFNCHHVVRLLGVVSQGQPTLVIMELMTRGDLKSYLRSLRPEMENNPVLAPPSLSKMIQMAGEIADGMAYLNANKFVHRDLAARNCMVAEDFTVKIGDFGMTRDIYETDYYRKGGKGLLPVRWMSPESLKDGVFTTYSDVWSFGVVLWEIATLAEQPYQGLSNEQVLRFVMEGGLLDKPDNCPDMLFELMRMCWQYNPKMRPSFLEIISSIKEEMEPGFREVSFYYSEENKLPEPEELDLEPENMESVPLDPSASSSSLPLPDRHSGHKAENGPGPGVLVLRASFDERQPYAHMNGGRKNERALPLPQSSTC

Turning to `C=CC(=O)Nc1cc(Nc2ncc(Cl)c(Nc3ccc4ccccc4c3)n2)c(OC)cc1N(C)CCN(C)C` [CCB120067, N-((5-((5-chloro-4-((naphthalen-2-yl)amino))pyrimidin-2-yl)amino)-2-((N-methyl-N-dimethylaminoethyl)amino)-4-methoxyphenyl)acrylamide], the 50% inhibitory concentration (IC50) in assay [1] was 1 to 56 nM; at IGF-1R it was 31.9 nM; against EGFR^wt, 9.4 nM. Besides, the “inhibition of tumor growth” value in assay [2] (10 mg/kg gavage once a day for 11 days, FIG. 3) is on record as “significantly inhibit”. Also, in assay [2] (10 mg/kg gavage, after 7 days of administration), the tumor regression entry was “completely subsided”. The “inhibitory activity on tumor growth compared with positive control” value in assay [2] (CCB120067 10 mg/kg versus CO1686 100 mg/kg) is “stronger than anti-tumor effect of CO1686 at 100 mg/kg dose”.

The term IC50 denotes the concentration at which inhibition is half-maximal.

The values above are taken from patent US10059694B2, “2-aminopyrimidine compound and pharmaceutical composition and use thereof” (Shanghai Institute of Materia Medica, Chinese Academy of …, priority 2014, dated 2018).
